The source of these data is PubChem BioAssay AID248 (DTP/NCI, 2004).

This assay concerns L1210 leukemia ip in BDF1 mice, survival T/C. The assay is described as follows: NCI In Vivo Anticancer Drug Screen. Data for tumor model L1210 Leukemia (intraperitoneal) in B6D2F1 (BDF1) mice. As to conditions: endpoint: mean survival time, higher = longer survival. The gist of the method:
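Tumor cells were implanted, animals were treated, and survival was followed. The result divides the treated measurement by the vehicle-control measurement.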

Inconclusive results and toxic doses are left out.

Take `N/N=C\C(=N/N)C(O)C(O)C(O)CO` (centres undefined): the T/C (dose: 25.0 mg/kg/injection, schedule: Q01DX001 (ip), vehicle: saline with Tween-80) was 93 % of control; the T/C (dose: 50.0 mg/kg/injection, schedule: Q01DX001 (ip), vehicle: saline with Tween-80) was 90 % of control; the T/C (dose: 100.0 mg/kg/injection, schedule: Q01DX001 (ip), vehicle: saline with Tween-80) was 87 % of control.
`C[N+](C)(C)CCCC#CC[N+]1(C)CCOCC1`: the T/C is, setting by setting: (dose: 8.4 mg/kg/injection, schedule: Q01DX009 (ip), vehicle: saline) 151 % of control; (dose: 14.0 mg/kg/injection, schedule: Q01DX009 (ip), vehicle: saline) 197 % of control; (dose: 39.0 mg/kg/injection, schedule: Q01DX009 (ip), vehicle: saline) 96 % of control; (dose: 65.0 mg/kg/injection, schedule: Q07DX009 (ip), vehicle: saline) 157 % of control; (dose: 108.0 mg/kg/injection, schedule: Q07DX009 (ip), vehicle: saline) 190 % of control; (dose: 180.0 mg/kg/injection, schedule: Q07DX009 (ip), vehicle: saline) 177 % of control. Further, the T/C (dose: 300.0 mg/kg/injection, schedule: Q07DX009 (ip), vehicle: saline) is 123 % of control.
Take `CN(C)c1ccc(C=Nc2ccc(Cc3ccncc3)cc2)cc1`: the T/C was 99 % of control (dose: 100.0 mg/kg/injection, schedule: Q01DX009 (ip), vehicle: Klucel (hydroxypropylcellulose) (HPC)); 98 % of control (dose: 200.0 mg/kg/injection, schedule: Q01DX009 (ip), vehicle: Klucel (hydroxypropylcellulose) (HPC)); 100 % of control (dose: 400.0 mg/kg/injection, schedule: Q01DX009 (ip), vehicle: Klucel (hydroxypropylcellulose) (HPC)).
With `COc1cccc2c1CC/C(=C\c1cccnc1)C2=O`, the T/C is, setting by setting: (dose: 100.0 mg/kg/injection, schedule: Q04DX003 (ip), vehicle: carboxymethylcellulose (CMC)) 103 % of control; (dose: 200.0 mg/kg/injection, schedule: Q04DX003 (ip), vehicle: carboxymethylcellulose (CMC)) 102 % of control; (dose: 400.0 mg/kg/injection, schedule: Q04DX003 (ip), vehicle: carboxymethylcellulose (CMC)) 95 % of control.
For the compound `C=CC/C=C/C1CCCCC1`, the T/C runs as follows: (dose: 50.0 mg/kg/injection, schedule: Q01DX009 (ip), vehicle: saline with Tween-80) 92 % of control; (dose: 100.0 mg/kg/injection, schedule: Q01DX009 (ip), vehicle: saline with Tween-80) 100 % of control; (dose: 200.0 mg/kg/injection, schedule: Q01DX009 (ip), vehicle: saline with Tween-80) 89 % of control.
